What was measured:
GST-GRASP55 FL = molecular target: T1, GST-GRASP55 FL (Mus musculus, UniProt Q99JX3); test: HTRF competition with biotinylated JAM-B C-terminal 19-mer peptide; type: binding
T1 construct: gene Gorasp2; full-length aa 2-451, N-terminal GST tag, E. coli BL21(DE3)

His-GRASP55 PDZ12 = molecular target: T2, His-GRASP55 PDZ12 (Mus musculus, UniProt Q99JX3); test: differential scanning fluorimetry (SYPRO orange); type: binding; conditions: 4 μM protein, 50 μM Graspin, PBS, 2.5% DMSO
T2 construct: gene Gorasp2; tandem PDZ domains PDZ12 aa 2-208, N-terminal 6His tag, E. coli BL21(DE3)
Text: differential scanning fluorimetry (SYPRO orange) on His-GRASP55 PDZ12 | […], but not the JAM-C peptide, decreased the GRASP55 melting temperature

Question: For `CCCCCn1c(SCCCn2c(Br)nc3c2c(=O)[nH]c(=O)n3C)nc2c1c(=O)[nH]c(=O)n2C` [Graspin], which IC50 (GST-GRASP55 FL) is on record?
Answer: 8.4 µM

Question: And the dTm (His-GRASP55 PDZ12)?
Answer: Graspin, but not the JAM-C peptide, decreased the GRASP55 melting temperature
